What was measured:
[1] = Fragment solubility assay (quantitative 1H NMR); format: physicochemical; conditions: Supplementary Table 1
Method: Aqueous solubility test samples were prepared by adding 3.6 µL compound (50 mM stock in 100% DMSO-d6) to 176.4 µL NMR buffer in a microcentrifuge tube. The samples were incubated overnight and transferred to a 3-mm NMR tube (Bruker, Part No. Z112272). ^1H NMR spectra were recorded, with the DMSO and water signals dampened. 1 mM caffeine (Sigma, C1778 in PBS (pH 7.4) with 1% DMSO-d6) was used as a standard to quantify the ligand signals and determine the concentration of samples.
NMR data were collected on a Bruker Avance Neo 600-MHz spectrometer equipped with a 5 mm TCI-CryoProbe. The ^1H spectrum was referenced to the internal deuterated solvent. The operating frequency for ^1H was 600 MHz. All NMR data were acquired at the temperature of 298 K. All data were acquired and processed using Bruker Topspin 4.0. The quantitative ^1H-NMR spectrum was acquired using a Bruker standard 1D lc1pngppsf2 pulse sequence with 32 scans. The sweep width was 6.2 ppm with O1P set to 8.8 ppm, and the FID contained 16k time-domain data points. Relaxation delay was set to 20 s. Water signal was suppressed.

TRF1TRFH [2] = biological target: T1, TRF1TRFH (Homo sapiens, UniProt P54274); assay: LO-NMR CPMG assay (relaxation-edited), singletons; format: binding; conditions: single experiment
T1 construct: encoding residues 47–268, UniProt identifier P54274-1; His6-MBP (TEV-cleavable) (N, cleaved yes); made in house; host or cells: E. coli BL21-CodonPlus(DE3)-RIL
T1 sequence (P54274 47-268): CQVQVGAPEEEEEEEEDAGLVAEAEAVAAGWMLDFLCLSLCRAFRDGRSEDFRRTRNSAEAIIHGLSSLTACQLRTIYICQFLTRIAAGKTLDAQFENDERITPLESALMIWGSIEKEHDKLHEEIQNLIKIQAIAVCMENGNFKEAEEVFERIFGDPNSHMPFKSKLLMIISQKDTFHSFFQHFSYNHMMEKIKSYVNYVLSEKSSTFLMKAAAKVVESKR
Method: We next used a LO-NMR CPMG assay to orthogonally validate XChem hits in solution, aiming to eliminate false positives and rank hit matter for follow-up studies. Compounds were tested as singletons and prepared in two samples containing either compound alone (sample 1) or compound + TRF1TRFH (sample 2).
The fragment screen by LO-NMR was carried out using conditions described previously, with some modifications. Fragments were dispensed in triplicate into a 384-well plate using an Echo 550 liquid handler to give a final ligand concentration of 250 µM (total sample volume of 40 µL). 40 µL of TRF1TRFH protein (in NMR buffer; 20 µM final protein concentration in the assay) were added to the ‘protein’ samples; 40 µL of TRF1TRFH protein and TIN2TBM peptide (21-mer, Ac-[…]-CONH2; 40 µM final concentration in the assay) were both added to the ‘competitor’ samples; 40 µL NMR buffer were added to the ‘compound-only’ samples. Solutions were transferred to 1.7-mm NMR tubes using a Bruker SamplePro Tube robotics system. ^1H NMR spectra were recorded on a Bruker AVIII 500 MHz spectrometer at 298 K, equipped with a 1.7-mm TXI probe, with samples in 1.7-mm SampleJET NMR tubes (Bruker). DMSO and water signals were dampened. A relaxation spin filter was applied at 400 ms. Data were processed using Bruker Topspin 4.0. Lines were broadened with LB = 3.0, and the baseline was corrected between 6.0 and 10.0 ppm.
The data were then analysed using the MNova Screen software. Only peaks between 5.5 and 9.5 ppm were considered. Peaks with a height of < 5% maximum peak height within the region of interest were considered noise, and the minimum matched peak level was set at > 51%. The relative peak intensity change (I) was calculated for all peaks in the 5.5–9.5 ppm region, for each compound, as described previously. The average integral for all peaks between 6.0 and 10.0 ppm was calculated, and the differences between compound-only, compound-plus-protein, and compound-plus-protein-plus-competitor samples were compared. The net recovery was calculated by subtracting the reduction in peak integral of the compound-plus-protein samples from the compound-plus-protein-plus-competitor samples.
For hit validation, relaxation-edited LO-NMR experiments were repeated as described above on single compounds instead of fragment cocktails.

TRF1TRFH [3] = biological target: T1, TRF1TRFH; assay: Crystal soaking of TRF1TRFH crystals; conditions: soaking into TRF1TRFH crystals; Supplementary Table 1
From the text: Attempts to soak TRF1TRFH crystals with the commercially available analogues of the XChem hit 5 were also unsuccessful. Only one slightly smaller analogue (22) could be soaked into TRF1TRFH crystals, albeit with an ambiguous binding mode. […] In the case of compound 5, we observed a hydrogen bond between the amino group of the fragment and a backbone carbonyl in the neighbouring protein chain (Fig. 2i). […] Additionally, the pocket normally occupied by the conserved phenylalanine residue of the TIN2 F-X-L-X-P motif was fully obstructed by a crystal contact with a TRF1TRFH copy in an adjacent asymmetric unit, further limiting the possibility of obtaining XChem hits outside of the leucine pocket.
TRF1TRFH crystals in the P3_121 space group were grown by sitting drop vapour diffusion in SWISSCI 3-drop plates using similar crystallisation conditions to those described previously. The total drop volume was 300 nL, consisting of 150 nL of TRF1TRFH (31.2 mg/mL) and 150 nL of reservoir solution (1% PEG8000, 100 mM MES pH 6.0, 1–12 mM Mg(OAc)2, 10–15% glycerol), whilst the reservoir volume was 35 µL. Crystallisation plates were set up using an SPT Labtech mosquito Xtal2 liquid handler. Cuboid-shaped crystals grew to their maximum size (300 μm across) within 24 h. Crystals were cryoprotected through the addition of 180 nL of 40% glycerol to the crystal drop prior to harvesting, giving a final glycerol concentration of […] (accounting for the glycerol already in the crystallisation conditions). The crystals were then flash-frozen in liquid nitrogen, and data were collected at the Diamond Light Source beamlines I04 and I04-1 and processed automatically using the Xia2 Dials pipeline[53],[54]. The TRF1TRFH structure was solved by molecular replacement in Phaser MR[55] within CCP4[56] using the previously published TRF1TRFH structure as a search model (PDB: 1H6O)[31], after having first stripped the search model of solvent molecules and ligands. Structure refinement was done using Refmac[57] and Buster[36], and model correction and building was done using Coot 0.9.6[35].
The DSi-Poised library (768 fragment, Enamine)[32], the EUbOPEN DSiP extension library (108 fragments) and the FragLite library (31 fragments)[33] were screened against TRF1TRFH crystals. Compounds at 500 mM in DMSO stocks were dispensed into selected crystal drops as singletons using an Echo 550 liquid handler to give a final concentration of 50 mM (10% DMSO final concentration). After incubation for 1 h at 20 °C, 180 nL of glycerol (40% stock, final drop concentration 28.8–32.5%) were added to each drop immediately prior to crystal harvesting and flash-freezing in liquid nitrogen.
Data were collected on the I04-1 beamline at Diamond Light Source. […]

[4] = biological target: T2, (StrepII)2-TEV-tagged TIN2, subunit of recombinant shelterin (UniProt Q9BSI4-1 1-451); assay: mass photometry; SEC-purified shelterin without compound; complex of around 700 kDa; 50 mM HEPES-NaOH pH 8.0, 300 mM NaCl; conditions: both partners purified
T2 construct: TIN2, gene NM_001099274.1, codon-optimised; a TEV site lies between tag and protein; The separately made control protein is called TIN2L; The discussion says that the complex carries a short peptidic tag on TIN2; source: Sf9, co-expressed with the other shelterin subunits (MultiBac baculovirus), purified (StrepTrap, serial SEC)
T2 sequence (looked up): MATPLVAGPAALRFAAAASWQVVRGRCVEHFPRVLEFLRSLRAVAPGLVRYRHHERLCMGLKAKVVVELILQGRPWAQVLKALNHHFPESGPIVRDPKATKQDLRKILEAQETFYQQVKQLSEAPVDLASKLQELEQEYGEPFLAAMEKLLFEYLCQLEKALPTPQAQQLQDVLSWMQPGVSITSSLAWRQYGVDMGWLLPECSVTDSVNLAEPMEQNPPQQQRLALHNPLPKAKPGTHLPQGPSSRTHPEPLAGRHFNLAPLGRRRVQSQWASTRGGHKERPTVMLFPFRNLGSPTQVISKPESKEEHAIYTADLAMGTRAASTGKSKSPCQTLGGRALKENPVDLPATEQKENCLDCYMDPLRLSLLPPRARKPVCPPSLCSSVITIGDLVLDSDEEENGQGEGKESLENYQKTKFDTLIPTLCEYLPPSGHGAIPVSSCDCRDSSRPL

COc1ccc2sc(C)nc2c1 [Compound 22]
Aq. Sol. [1]: 790 µM | CPMG reduction (TRF1TRFH [2]; average peak intensity reduction on addition of TRF1TRFH, 250 µM ligand, 20 µM protein): 18% | CPMG recovery (TRF1TRFH [2]; net recovery of peak intensity on addition of TIN2TBM peptide (40 µM) to compound plus protein): 9% | Crystal structure (TRF1TRFH [3]): Yes

B1: RAP1, subunit of recombinant shelterin (natural protein, UniProt Q9NYB0 1-399, looked up)
chain: MAEAMDLGKDPNGPTHSSTLFVRDDGSSMSFYVRPSPAKRRLSTLILHGGGTVCRVQEPGAVLLAQPGEALAEASGDFISTQYILDCVERNERLELEAYRLGPASAADTGSEAKPGALAEGAAEPEPQRHAGRIAFTDADDVAILTYVKENARSPSSVTGNALWKAMEKSSLTQHSWQSLKDRYLKHLRGQEHKYLLGDAPVSPSSQKLKRKAEEDPEAADSGEPQNKRTPDLPEEEYVKEEIQENEEAVKKMLVEATREFEEVVVDESPPDFEIHITMCDDDPPTPEEDSETQPDEEEEEEEEKVSQPEVGAAIKIIRQLMEKFNLDLSTVTQAFLKNSGELEATSAFLASGQRADGYPIWSRQDDIDLQKDDEDTREALVKKFGAQNVARRIEFRKK
notes: RAP1 (TRF2-associated shelterin subunit), gene NM_018975.3, codon-optimised
stoichiometry N [4]: 4 RAP1 per TIN2

B2: TRF2 (telomeric repeat-binding factor 2), subunit of recombinant shelterin (natural protein, UniProt Q15554-3 1-542, looked up)
chain: MAAGAGTAGPASGPGVVRDPAASQPRKRPGREGGEGARRSDTMAGGGGSSDGSGRAAGRRASRSSGRARRGRHEPGLGGPAERGAGEARLEEAVNRWVLKFYFHEALRAFRGSRYGDFRQIRDIMQALLVRPLGKEHTVSRLLRVMQCLSRIEEGENLDCSFDMEAELTPLESAINVLEMIKTEFTLTEAVVESSRKLVKEAAVIICIKNKEFEKASKILKKHMSKDPTTQKLRNDLLNIIREKNLAHPVIQNFSYETFQQKMLRFLESHLDDAEPYLLTMAKKALKSESAASSTGKEDKQPAPGPVEKPPREPARQLRNPPTTIGMMTLKAAFKTLSGAQDSEAAFAKLDQKDLVLPTQALPASPALKNKRPRKDENESSAPADGEGGSELQPKNKRMTISRLVLEEDSQSTEPSAGLNSSQEAASAPPSKPTVLNQPLPGEKNPKVPKGKWNSSNGVEEKETWVEEDELFQVQAAPDEDSTTNITKKQKWTVEESEWVKAGVQKYGEGNWAAISKNYPFVNRTAVMIKDRWRTMKRLGMN
notes: TRF2, gene NM_005652.4, codon-optimised
stoichiometry N [4]: 4 TRF2 per TIN2

B3: POT1, subunit of recombinant shelterin (natural protein, UniProt Q9NUX5-1 1-634, looked up)
chain: MSLVPATNYIYTPLNQLKGGTIVNVYGVVKFFKPPYLSKGTDYCSVVTIVDQTNVKLTCLLFSGNYEALPIIYKNGDIVRFHRLKIQVYKKETQGITSSGFASLTFEGTLGAPIIPRTSSKYFNFTTEDHKMVEALRVWASTHMSPSWTLLKLCDVQPMQYFDLTCQLLGKAEVDGASFLLKVWDGTRTPFPSWRVLIQDLVLEGDLSHIHRLQNLTIDILVYDNHVHVARSLKVGSFLRIYSLHTKLQSMNSENQTMLSLEFHLHGGTSYGRGIRVLPESNSDVDQLKKDLESANLTANQHSDVICQSEPDDSFPSSGSVSLYEVERCQQLSATILTDHQYLERTPLCAILKQKAPQQYRIRAKLRSYKPRRLFQSVKLHCPKCHLLQEVPHEGDLDIIFQDGATKTPDVKLQNTSLYDSKIWTTKNQKGRKVAVHFVKNNGILPLSNECLLLIEGGTLSEICKLSNKFNSVIPVRSGHEDLELLDLSAPFLIQGTIHHYGCKQCSSLRSIQNLNSLVDKTSWIPSSVAEALGIVPLQYVFVMTFTLDDGTGVLEAYLMDSDKFFQIPASEVLMDDDLQKSVDMIMDMFCPPGIKIDAYPWLECFIKSYNVTNGTDNQICYQIFDTTVAEDVI
notes: POT1 (shelterin subunit), gene NM_015450, codon-optimised
stoichiometry N [4]: 1 POT1 per TIN2

B4: TPP1, subunit of recombinant shelterin (natural protein, UniProt Q96AP0 1-458, looked up)
chain: MAGSGRLVLRPWIRELILGSETPSSPRAGQLLEVLQDAEAAVAGPSHAPDTSDVGATLLVSDGTHSVRCLVTREALDTSDWEEKEFGFRGTEGRLLLLQDCGVHVQVAEGGAPAEFYLQVDRFSLLPTEQPRLRVPGCNQDLDVQKKLYDCLEEHLSESTSSNAGLSLSQLLDEMREDQEHQGALVCLAESCLTLEGPCTAPPVTHWAASRCKATGEAVYTVPSSMLCISENDQLILSSLGPCQRTQGPELPPPDPALQDLSLTLIASPPSSPSSSGTPALPGHMSSEESGTSISLLPALSLAAPDPGQRSSSQPSPAICSAPATLTPRSPHASRTPSSPLQSCTPSLSPRSHVPSPHQALVTRPQKPSLEFKEFVGLPCKNRPPFPRTGATRGAQEPCSVWEPPKRHRDGSAFQYEYEPPCTSLCARVQAVRLPPQLMAWALHFLMDAQPGSEPTPM
notes: TPP1 (shelterin subunit), gene BC016904.1, codon-optimised
stoichiometry N [4]: 1 TPP1 per TIN2

Source: paper PMC12635197, “Discovery of first-in-class inhibitors of the TRF1:TIN2 protein:protein interaction by fragment screening” (Scientific Reports, 2025)
